Data reported in US7750148B2, “Intermediate compound for the production of β-lactamase-resistant cephalosporin ester compounds and salts thereof” (Zhejiang Yongning Pharmaceutical Factory, priority 2003, dated 2010).

Legend:
[1] = tested on: Staphylococcus epidermidis 26069; experiment: In vitro antibacterial activity (MIC, agar double dilution); type: cell-based; conditions: Staphylococcus epidermidis 26069, 10^5CFU/ML each point, 24 hours at 37° C.
Source text: (§1) tested samples YR-1, YR-2 were the ones prepared in example 1 and example 5 respectively, control samples were cefetamet sodium (CTM), cefuroxime sodium (CRX), cefetamet sodium+sulbactam sodium (CTM+SBT) (molar ratio 1:1), cefuroxime+sulbactam sodium (CRX+SBT) (molar ratio 1:1). All control samples (have been sold on the market) were supplied by Zhejiang Yongning pharmaceutical factory.
(§2) Staphylococcus epidermidis 26069 and Bacillus aerogenes 45102 were supplied by Beijing Drug & Biology Product Appraisal Bureau.
(§3) Mueller-Hinton Agar (M.H) culture medium, batch number 20040528 (Shanghai Reagent Supply Research Center, China Diarrhea Disease Control).
(§4) Adopted agar double dilution, inoculated using multipoint inoculator, inoculated 10^5CFU/ML each point, cultured for 24 hours at 37° C., observed and recorded the results, set the least concentration of the antibacterial drug that can inhibit bacteria growth as the minimum inhibitory concentration (MIC).

Bacillus aerogenes 45102 = experiment: as above; type: cell-based
Source text: as §1, §2, §3, §4

[2] = tested on: Diplococcus lanceolatus 0031; experiment: as above; type: cell-based; conditions: Diplococcus lanceolatus 0031, 10^5CFU/ML each point, 24 hours at 37° C.
Source text: as §1
Diplococcus lanceolatus 0031 was supplied by Shanghai First People's Hospital.
as §3, §4

[3] = Mouse maximum tolerable dose experiment (acute toxicity); type: in vivo, Kunming mice; conditions: for abnormalities in the organs after killed (autopsy) / symptoms of toxic reactions: 5 g/kg intragastric; for abnormalities in the organs after killed (autopsy): after 7 days observation; for symptoms of toxic reactions: fasted for 16 hours; for symptoms of toxic reactions / Death rate: 7 days observation; for Death rate / Death number during observation: 5 g/kg/24 hr intragastric
Description: tested samples (YR-1, YR-2) are the same as above.
Strain: Kunming mice; source: Animal Facility of Shanghai Institute of Pharmaceutical Industry; certificate number: Hudonghezhengzi No. 107; animal numbers: 20; Sex: same number of male and female mice; Body weight: 18-21 g; fast time: 16 hours.
Preparation of samples: 5 g/kg (prepared with 5% carboxymethyl cellulose CMC); volume accepted: 0.6 ml/20 g body weight/each time; administration times: once; dosage: 5 g/kg/24 hr
Intragastric Administration
20 mice, 10 male and 10 female, were given YR-1 or YR-2 via intragastric administration, observed manifestation of mice toxic symptom immediately after administration, recorded mice death number.
Observed manifestation of mice toxic symptom immediately after administration, observed twice each day (morning and evening).
Toxic reaction: recorded behaviors of mice, skin, respiration, urination and defecation, appetite, checked if there are abnormal secretions appeared in the nose, eye and mouth.
Observation period: 7 days, killed all the surviving mice after observation period, and autopsied to see if there is any abnormality existed in the mice organs.

[4] = read-out: MIC of the drug to bacteria

| Compound | abnormalities in the organs after killed (autopsy) ([3]; Kunming mice) | symptoms of toxic reactions ([3]; Kunming mice) | Death rate ([3]; female mice) [%] | Death number during observation ([3]; female mice, day 1) | Death number during observation ([3]; female mice, day 2) | Death number during observation ([3]; female mice, day 3) | Death number during observation ([3]; female mice, day 4) | Death number during observation ([3]; female mice, day 5) | Death number during observation ([3]; female mice, day 6) | Death number during observation ([3]; female mice, day 7) | Death rate ([3]; male mice) [%] | Death number during observation ([3]; male mice, day 1) | Death number during observation ([3]; male mice, day 2) | Death number during observation ([3]; male mice, day 3) | Death number during observation ([3]; male mice, day 4) | Death number during observation ([3]; male mice, day 5) | Death number during observation ([3]; male mice, day 6) | Death number during observation ([3]; male mice, day 7) | other results |
| --- | --- | --- | --- | --- | --- | --- | --- | --- | --- | --- | --- | --- | --- | --- | --- | --- | --- | --- | --- |
| 5-thia-1-aza-bicyclo [4,2,0] octane-2-ene-2-carboxylic acid, 7-[[(2-amino-4-thiazolyl) (methoxy imine) acetyl]amino]-3-methyl-8-oxo-, [[3,3-dimethyl-4,4-dioxy-7-oxo-4-thia-1-aza-bicyclo [3,2,0] heptane-2-group]carbonyloxy]oxy]methyl ester [YR-1] | no abnormalities were observed in the organs | no obvious abnormal symptoms of toxic reactions | 0 | 0 | 0 | 0 | 0 | 0 | 0 | 0 | 0 | 0 | 0 | 0 | 0 | 0 | 0 | 0 | MIC of the drug to bacteria [1]: 50 mg/L; MIC of the drug to bacteria (Bacillus aerogenes 45102; Bacillus aerogenes 45102, 10^5CFU/ML each point, 24 hours at 37° C.): 0.39 mg/L; MIC of the drug to bacteria [2]: 50 mg/L |
| CON=C(C(=O)NC1C(=O)N2C(C(=O)OCOC(=O)C3N4C(=O)CC4S(=O)(=O)C3(C)C)=C(COC(N)=O)CSC12)c1ccco1 (stereo not shown) [YR-2, 5-thia-1-aza-bicyclo [4,2,0] octane-2-ene-2-carboxylic acid, 7-[[(2-furane (methoxy imine)acetyl)amino]-3-[[(aminocarbonyloxy)oxy]methyl]-8-oxo-, [[3,3-dimethyl-4,4-dioxy-7-oxo-4-thia-1-aza-bicyclo[3,2,0]heptane-2-group]carbonyloxy]oxy]methyl ester] | no abnormalities were observed in the organs | no obvious abnormal symptoms of toxic reactions | 0 | 0 | 0 | 0 | 0 | 0 | 0 | 0 | 0 | 0 | 0 | 0 | 0 | 0 | 0 | 0 | MIC [1, 4]: 0.78 mg/L; MIC (Bacillus aerogenes 45102; Bacillus, 45102, 24 h, read-out: MIC of the drug to bacteria): 6.25 mg/L; MIC [2, 4]: 0.78 mg/L; LD50 at 7 days ([3]; both sexes, mouse, in vivo, po, 5 g/kg, Kunming mice, intragastric administration, once): > 5000 mg/kg |
